Read-outs that look alike come from different tables or passages of the source.
How the values were obtained:
[1] = target: T1, AEA-DA lipid probe targets in Neuro2a cells (Mus musculus, UniProt Q8C3X8)
T1 sequence (Q8C3X8 1-702): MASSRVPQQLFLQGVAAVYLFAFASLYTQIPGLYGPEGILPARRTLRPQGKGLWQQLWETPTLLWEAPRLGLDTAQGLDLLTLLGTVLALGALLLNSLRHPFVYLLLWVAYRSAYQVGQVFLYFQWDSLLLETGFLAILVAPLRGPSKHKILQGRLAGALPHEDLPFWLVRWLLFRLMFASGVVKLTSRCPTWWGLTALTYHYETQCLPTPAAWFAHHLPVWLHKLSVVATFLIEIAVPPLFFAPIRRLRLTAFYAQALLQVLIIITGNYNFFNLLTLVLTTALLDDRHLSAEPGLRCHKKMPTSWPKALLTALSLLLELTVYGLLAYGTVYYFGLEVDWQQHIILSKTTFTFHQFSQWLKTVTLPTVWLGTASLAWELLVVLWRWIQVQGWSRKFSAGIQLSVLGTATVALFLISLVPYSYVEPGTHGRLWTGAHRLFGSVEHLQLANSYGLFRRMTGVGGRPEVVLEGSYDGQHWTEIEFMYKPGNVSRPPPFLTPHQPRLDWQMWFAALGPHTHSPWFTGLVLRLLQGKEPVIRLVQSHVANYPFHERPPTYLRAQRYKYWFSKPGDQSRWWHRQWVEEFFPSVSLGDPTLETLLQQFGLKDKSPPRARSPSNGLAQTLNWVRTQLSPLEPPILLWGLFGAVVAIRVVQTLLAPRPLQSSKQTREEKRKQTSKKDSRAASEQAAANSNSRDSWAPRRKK

[2] = target: T2, AEA-DA lipid probe targets in Neuro2a cells (Mus musculus, UniProt Q9D6K9)
T2 sequence (Q9D6K9 1-414): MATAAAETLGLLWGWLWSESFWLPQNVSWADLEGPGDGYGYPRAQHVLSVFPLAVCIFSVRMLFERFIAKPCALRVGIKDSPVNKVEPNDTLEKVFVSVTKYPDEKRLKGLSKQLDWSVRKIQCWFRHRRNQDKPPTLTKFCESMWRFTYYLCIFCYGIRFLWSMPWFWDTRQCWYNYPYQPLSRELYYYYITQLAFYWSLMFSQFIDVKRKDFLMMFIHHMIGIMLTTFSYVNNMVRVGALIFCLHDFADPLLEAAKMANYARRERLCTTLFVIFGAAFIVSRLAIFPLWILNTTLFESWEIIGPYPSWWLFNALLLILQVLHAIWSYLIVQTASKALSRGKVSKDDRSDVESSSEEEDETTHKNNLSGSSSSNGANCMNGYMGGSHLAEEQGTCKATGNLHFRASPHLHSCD

[3] = target: T3, AEA-DA lipid probe targets in Neuro2a cells (Mus musculus, UniProt Q8VC28)
T3 sequence (Q8VC28 1-323): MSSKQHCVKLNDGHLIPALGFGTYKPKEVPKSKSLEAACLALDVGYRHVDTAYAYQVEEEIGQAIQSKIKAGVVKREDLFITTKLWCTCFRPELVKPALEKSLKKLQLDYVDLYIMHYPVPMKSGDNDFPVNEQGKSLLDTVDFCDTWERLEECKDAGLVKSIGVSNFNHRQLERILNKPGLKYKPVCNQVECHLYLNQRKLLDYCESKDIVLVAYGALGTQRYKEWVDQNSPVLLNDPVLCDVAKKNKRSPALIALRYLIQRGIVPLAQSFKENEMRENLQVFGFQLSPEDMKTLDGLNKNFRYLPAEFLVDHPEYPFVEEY

[4] = target: T4, AEA-DA lipid probe targets in Neuro2a cells (Mus musculus, UniProt Q9DBH5)
T4 sequence (Q9DBH5 47-358): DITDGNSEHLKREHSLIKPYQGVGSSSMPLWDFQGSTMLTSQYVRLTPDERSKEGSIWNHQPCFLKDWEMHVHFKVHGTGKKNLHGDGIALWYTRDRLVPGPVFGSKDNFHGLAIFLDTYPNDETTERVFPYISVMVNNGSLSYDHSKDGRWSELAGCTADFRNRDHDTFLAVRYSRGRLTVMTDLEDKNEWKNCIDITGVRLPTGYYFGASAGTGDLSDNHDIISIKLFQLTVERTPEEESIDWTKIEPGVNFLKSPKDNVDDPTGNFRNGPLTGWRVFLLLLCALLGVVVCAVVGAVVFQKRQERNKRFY

[5] = target: T5, AEA-DA lipid probe targets in Neuro2a cells (Mus musculus, UniProt Q91YQ5)
T5 sequence (Q91YQ5 26-608): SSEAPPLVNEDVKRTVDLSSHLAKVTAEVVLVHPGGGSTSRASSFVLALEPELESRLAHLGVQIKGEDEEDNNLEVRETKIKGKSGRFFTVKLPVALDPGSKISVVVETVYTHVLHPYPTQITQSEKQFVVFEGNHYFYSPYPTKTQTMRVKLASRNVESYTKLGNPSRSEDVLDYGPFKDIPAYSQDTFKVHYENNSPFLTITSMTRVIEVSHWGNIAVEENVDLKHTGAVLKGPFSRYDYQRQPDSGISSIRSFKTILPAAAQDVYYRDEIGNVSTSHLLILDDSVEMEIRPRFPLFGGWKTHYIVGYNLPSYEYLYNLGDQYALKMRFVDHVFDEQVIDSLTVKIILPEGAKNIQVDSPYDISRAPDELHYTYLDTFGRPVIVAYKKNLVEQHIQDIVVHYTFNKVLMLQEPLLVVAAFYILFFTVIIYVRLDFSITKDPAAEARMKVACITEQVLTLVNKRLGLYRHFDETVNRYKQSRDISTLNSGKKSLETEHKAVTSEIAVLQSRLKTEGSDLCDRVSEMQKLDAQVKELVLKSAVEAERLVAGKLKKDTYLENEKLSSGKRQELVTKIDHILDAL

[6] = target: T6, AEA-DA lipid probe targets in Neuro2a cells (Mus musculus, UniProt Q5XKN4)
T6 sequence (Q5XKN4 1-183): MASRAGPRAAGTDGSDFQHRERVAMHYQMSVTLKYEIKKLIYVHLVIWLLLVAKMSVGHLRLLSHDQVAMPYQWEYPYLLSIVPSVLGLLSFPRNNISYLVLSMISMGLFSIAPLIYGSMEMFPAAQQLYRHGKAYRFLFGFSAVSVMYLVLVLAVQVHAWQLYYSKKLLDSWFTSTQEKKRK

[7] = target: AEA-DA lipid probe targets in Neuro2a cells (Mus musculus, UniProt O88696)
AEA-DA lipid probe targets in Neuro2a cells (Mus musculus, UniProt O88696), sequence (O88696 53-272): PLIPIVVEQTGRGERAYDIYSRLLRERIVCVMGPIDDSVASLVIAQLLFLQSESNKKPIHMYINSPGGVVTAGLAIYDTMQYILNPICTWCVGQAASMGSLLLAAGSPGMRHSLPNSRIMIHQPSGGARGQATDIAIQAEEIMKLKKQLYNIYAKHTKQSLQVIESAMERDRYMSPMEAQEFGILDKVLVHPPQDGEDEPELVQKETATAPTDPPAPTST

Structure (SMILES) | SILAC ratio Lmf2 ([1]; competitor 25 μM) | SILAC ratio, Cers5 ([2]; competitor 25 μM) | SILAC ratio Akr1c13 ([3]; competitor 25 μM) | SILAC ratio Lman2 ([4]; competitor 25 μM) | SILAC ratio Rpn1 ([5]; competitor 25 μM) | SILAC ratio, Jagn1 ([6]; competitor 25 μM) | SILAC ratio Clpp ([7]; competitor 25 μM) | other results
CCCCC/C=C\C/C=C\C/C=C\C/C=C\CCCC(=O)NCCO [AEA, anandamide, reference compound] | – | – | – | – | – | – | – | SILAC ratio Lmf2 ([1]; competitor 200 μM): 1.9; SILAC ratio, Cers5 ([2]; competitor 200 μM): 2.1; SILAC ratio Akr1c13 ([3]; competitor 200 μM): 1.7; SILAC ratio Lman2 ([4]; competitor 200 μM): 1.5; SILAC ratio Rpn1 ([5]; competitor 200 μM): 1.6; SILAC ratio, Jagn1 ([6]; competitor 200 μM): 2.1; SILAC ratio Clpp ([7]; competitor 200 μM): 1.4
O=C(/C=C/c1cccnc1)NCCCCC1CCN(C(=O)c2ccccc2)CC1 [FK-866, reference compound] | 1.2 | 1.1 | 1.0 | 1.1 | 1.2 | 1.1 | 1.0 | –
CN1CCN(C(=O)c2c(-c3ccccc3)c3cc([N+](=O)[O-])ccc3n2C)CC1 [KML110, (1-Methyl-5-nitro-3-phenyl-1H-indol-2-yl)(4-methylpiperazin-1-yl)methanone] | 1.7 | 1.6 | 1.1 | 1.3 | 1.2 | 1.5 | 2.4 | –
CN1CCN(C(=O)c2[nH]c3ccc([N+](=O)[O-])cc3c2-c2ccccc2)CC1 [MJN228, (4-Methylpiperazin-1-yl)(5-nitro-3-phenyl-1H-indol-2-yl)methanone] | 1.7 | 1.8 | 1.0 | 1.1 | 1.4 | 1.4 | 2.1 | SILAC ratio Lmf2 ([1]; competitor 10 μM): 1.5; SILAC ratio Lmf2 ([1]; competitor 50 μM): 2.0; SILAC ratio Lmf2 ([1]; competitor 100 μM): 2.5; SILAC ratio, Cers5 ([2]; competitor 10 μM): 1.2; SILAC ratio, Cers5 ([2]; competitor 50 μM): 2.1; SILAC ratio, Cers5 ([2]; competitor 100 μM): 3.0; SILAC ratio Akr1c13 ([3]; competitor 50 μM): 1.0; SILAC ratio Lman2 ([4]; competitor 10 μM): 1.2; SILAC ratio Lman2 ([4]; competitor 50 μM): 2.1; SILAC ratio Lman2 ([4]; competitor 100 μM): 1.5; SILAC ratio Rpn1 ([5]; competitor 10 μM): 1.3; SILAC ratio Rpn1 ([5]; competitor 50 μM): 1.2; SILAC ratio Rpn1 ([5]; competitor 100 μM): 1.6; SILAC ratio, Jagn1 ([6]; competitor 10 μM): 1.2; SILAC ratio, Jagn1 ([6]; competitor 50 μM): 1.6; SILAC ratio, Jagn1 ([6]; competitor 100 μM): 2.1; SILAC ratio Clpp ([7]; competitor 10 μM): 1.4; SILAC ratio Clpp ([7]; competitor 50 μM): 3.6; SILAC ratio Clpp ([7]; competitor 100 μM): 9.0
C=CCN(C)CCCCCCOc1ccc(C(=O)c2ccc(Br)cc2)c(F)c1 [Ro 48-8071, reference compound] | 1.3 | 1.3 | 1.0 | 0.7 | 0.9 | 1.0 | 0.9 | –
